Read-outs that look alike come from different tables or passages of the source.
What was measured:
gastric acid secretion = assay: gastric acid secretion-inhibiting effect, Shay's method (pylorus-ligated rats); type: in vivo, rat (female H-Wistar); conditions: Rattus norvegicus
Experimental: According to this method female H-Wistar rats weighing 120 to 150 g were starved in latticed cages for 24 hours. The animals received water ad libitum. Then their pylorus was ligated under a slight ether anaesthesia. The test compounds were administered during the surgical intervention. After 4 hours the animals were killed by ether narcosis. After excision of the stomach the volume and pH value of the gastric content were measured. In several cases the hydrochloric acid content was determined by titration.

rats = conditions: rat, in vivo, po, 120 mg/kg
[1] = test system: gastric ulcers induced in rats by indomethacine; assay: inhibition of gastric ulcers induced by indomethacine in rats; type: in vivo, rat; conditions: 50 mg/kg oral dose, ulcers induced by 40 mg/kg s.c. indomethacine
Experimental: An 50 mg/kg oral dose of 1-benzyl-2-(cyanoimino)pyridine inhibits the development of gastric ulcers induced in rats by 40 mg/kg subcutaneous (s.c.) dose of indomethacine (chemically [1-(4-chlorobenzoyl)-2-methyl-5-methoxyindol-3-yl]acetic acid) by 100%.

[2] = Shay's method, female H-Wistar rats 120 to 150 g, starved 24 hours, pylorus ligated, 4 hours, given during the surgical intervention, read-out: ED50

Row | Compound | ED50 (gastric acid secretion; [2]) [mg/kg] | other results
1 | N#CN=c1ccccn1Cc1ccccc1Cl [1-(2-chlorobenzyl)-2-(cyanoimino)pyridine] | 1.8 | –
2 | N#CN=c1ccccn1Cc1cccc(Cl)c1 [1-(3-chlorobenzyl)-2-(cyanoimino)pyridine] | 9.88 | –
3 | N#CN=c1ccccn1Cc1ccccc1 [1-benzyl-2-(cyanoimino)pyridine] | 3.26 | toxic symptom (rats): No toxic symptom; inhibition of the development of gastric ulcers [1]: 100%
4 | O=[N+]([O-])N=c1ccccn1Cc1ccccc1 [1-benzyl-2-(nitroiminopyridine, 1-benzyl-2-(nitroimino)pyridine] | 13.6 | –
5 | N#CN=c1ccccn1Cc1ccccc1F [2-(cyanoimino)-1-(2-fluorobenzyl)pyridine] | 4.3 | –
6 | Cc1ccccc1Cn1ccccc1=NC#N [2-(cyanoimino)-1-(2-methylbenzyl)pyridine] | 11.7 | –
7 | N#CN=c1ccccn1Cc1cccc(C(F)(F)F)c1 [2-(cyanoimino)-1-(3-trifluoromethylbenzyl)pyridine] | 12.2 | –
8 | N#CN=c1ccccn1Cc1ccc(F)cc1 [2-(cyanoimino)-1-(4-fluorobenzyl)pyridine] | 8.36 | –
9 | CN=C(NC#N)NCCSCc1nc[nH]c1C [cimetidine, 1-cyano-2-methyl-3-[2-[[(5-methylimidazol-4-yl)methyl]thio]ethyl]-guanidine, reference compound] | – | ED50 (gastric acid secretion; po, 4 h, read-out: oral ED50): 50 mg/kg

— patent publication US5155123A, “Pyridine derivatives and pharmaceutical compositions containing them” (Richter Gedeon Vegyeszeti Gyar R.T., priority 1989, dated 1992)
